Test results taken from ChEMBL document CHEMBL1148587, “Imidazo[1,2-a]pyrimidines as functionally selective and orally bioavailable GABA(A)alpha2/alpha3 binding site agonists for the treatment of anxiety disorders” (J Med Chem, 2006).
Activity calls are given as the source filed them. The calls are words filed in the database; no cut-off is given here.

How the values were obtained:
[1] = biological target: GABA-A receptor; alpha-5/beta-3/gamma-2 (Homo sapiens) (UniProt P18507+P28472+P31644); test: Efficacy against human recombinant GABAA alpha-5-beta-3-gamma-2 expressed in L(tk-) cells by whole cell patch clamp method relative to chlordiazepoxide; format: functional, cell-based
[2] = biological target: T1, GABA-A receptor; alpha-3/beta-3/gamma-2 (Homo sapiens, UniProt P18507+P28472+P34903); test: Displacement of [3H]Ro-151788 from human recombinant GABAA alpha3 in combination with beta3gamma2 expressed in L(tk-) cells; format: cell-based
T1 sequence (P18507 whole entry): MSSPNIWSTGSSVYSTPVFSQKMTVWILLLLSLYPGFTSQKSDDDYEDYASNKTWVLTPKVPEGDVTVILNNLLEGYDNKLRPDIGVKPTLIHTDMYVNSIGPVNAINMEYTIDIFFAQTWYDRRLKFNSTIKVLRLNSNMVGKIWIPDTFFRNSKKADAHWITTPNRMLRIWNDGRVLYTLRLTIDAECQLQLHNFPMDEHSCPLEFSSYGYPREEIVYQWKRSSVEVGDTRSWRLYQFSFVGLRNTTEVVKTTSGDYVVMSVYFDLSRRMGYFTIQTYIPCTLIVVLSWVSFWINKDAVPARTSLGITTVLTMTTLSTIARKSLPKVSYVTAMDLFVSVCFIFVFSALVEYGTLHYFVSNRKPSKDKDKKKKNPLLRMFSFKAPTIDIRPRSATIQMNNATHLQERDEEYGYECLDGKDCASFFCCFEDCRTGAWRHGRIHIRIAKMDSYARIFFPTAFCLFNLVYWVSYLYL
T1 sequence (P28472 whole entry): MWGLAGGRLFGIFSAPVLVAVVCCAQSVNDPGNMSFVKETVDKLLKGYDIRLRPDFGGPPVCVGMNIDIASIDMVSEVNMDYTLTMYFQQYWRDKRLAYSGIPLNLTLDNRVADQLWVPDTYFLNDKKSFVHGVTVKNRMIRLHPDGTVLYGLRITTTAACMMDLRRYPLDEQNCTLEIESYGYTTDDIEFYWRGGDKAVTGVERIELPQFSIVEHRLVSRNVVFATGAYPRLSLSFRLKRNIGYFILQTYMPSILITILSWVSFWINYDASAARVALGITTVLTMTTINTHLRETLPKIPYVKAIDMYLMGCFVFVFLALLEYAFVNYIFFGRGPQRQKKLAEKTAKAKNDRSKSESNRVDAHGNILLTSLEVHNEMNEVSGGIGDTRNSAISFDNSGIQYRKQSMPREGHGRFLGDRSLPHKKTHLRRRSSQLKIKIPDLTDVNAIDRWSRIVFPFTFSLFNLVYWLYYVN
T1 sequence (P34903 whole entry): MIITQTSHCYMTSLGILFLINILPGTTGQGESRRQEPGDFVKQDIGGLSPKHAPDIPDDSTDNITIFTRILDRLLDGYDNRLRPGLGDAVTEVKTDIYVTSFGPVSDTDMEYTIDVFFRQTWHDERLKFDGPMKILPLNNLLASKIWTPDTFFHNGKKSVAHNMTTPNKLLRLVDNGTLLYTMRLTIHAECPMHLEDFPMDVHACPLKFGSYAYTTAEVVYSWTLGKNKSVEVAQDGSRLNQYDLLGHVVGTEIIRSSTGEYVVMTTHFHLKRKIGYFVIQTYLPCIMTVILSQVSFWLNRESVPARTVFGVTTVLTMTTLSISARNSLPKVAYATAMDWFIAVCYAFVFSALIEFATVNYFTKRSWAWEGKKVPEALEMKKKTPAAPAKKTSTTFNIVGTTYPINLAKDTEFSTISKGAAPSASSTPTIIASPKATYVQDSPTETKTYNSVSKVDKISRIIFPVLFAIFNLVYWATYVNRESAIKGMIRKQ

[3] = biological target: GABA-A receptor; alpha-1/beta-3/gamma-2 (Homo sapiens) (UniProt P14867+P18507+P28472); test: Efficacy against human recombinant GABAA alpha-1-beta-3-gamma-2 expressed in L(tk-) cells by whole cell patch clamp method relative to chlordiazepoxide; format: functional, cell-based
[4] = Half life in dog; format: ADME, organism-based, Canis lupus familiaris; conditions: in vivo
[5] = Half life in rat; format: ADME, organism-based; conditions: in vivo
[6] = biological target: GABA-A receptor; alpha-3/beta-3/gamma-2 (Homo sapiens) (UniProt P18507+P28472+P34903); test: Efficacy against human recombinant GABAA alpha-3-beta-3-gamma-2 expressed in L(tk-) cells by whole cell patch clamp method relative to chlordiazepoxide; format: functional, cell-based
[7] = biological target: T2, GABA-A receptor; alpha-2/beta-3/gamma-2 (Homo sapiens) (UniProt P18507+P28472+P47869); test: Efficacy against human recombinant GABAA alpha-2-beta-3-gamma-2 expressed in L(tk-) cells by whole cell patch clamp method; format: cell-based
Rattus norvegicus [8] = test: Activity in rat elevated plus maze assay at 3 mg/kg, po; format: functional, organism-based; parameters: dose 3 mg/kg
[9] = biological target: GABA-A receptor; anion channel (Rattus norvegicus) (UniProt O09028+P15431+P18506+P18508+P19969+P20236+P23574+P23576+P28471+P28473+P30191+P62813+P63079+P63138+Q91ZM7+Q9ES14); test: (§1) Displacement of [3H]Ro-151788 from central benzodiazepine binding site in rat administered po; format: functional
[10] = biological target: GABA-A receptor; anion channel; test: as §1; format: functional
[11] = biological target: T2, GABA-A receptor; alpha-2/beta-3/gamma-2 (Homo sapiens); test: Efficacy against human recombinant GABAA alpha-2-beta-3-gamma-2 expressed in L(tk-) cells by whole cell patch clamp method relative to chlordiazepoxide; format: functional, cell-based
[12] = Plasma clearance in rat; format: ADME, organism-based
[13] = Half life in rhesus monkey; format: ADME, organism-based, Macaca mulatta; conditions: in vivo
[14] = Oral bioavailability in rhesus monkey; format: ADME, organism-based, Macaca mulatta; conditions: in vivo
Rattus norvegicus [15] = test: Activity in rat elevated plus maze assay at 1 mg/kg, po; format: functional, organism-based; parameters: dose 1 mg/kg
[16] = Plasma clearance in rhesus monkey; format: ADME, organism-based, Macaca mulatta

Row | SMILES | Efficacy [1] [%] | Ki [2] [µM] | Efficacy [3] [%] | half-life [4] [h] | half-life [5] [h] | Efficacy [6] [%] | Efficacy [7] [%] | Activity (Rattus norvegicus [8]) | ID50 [9] [mg/kg] | EC50 [10] [µM] | Efficacy [11] [%] | clearance [12] [mL/min/kg] | half-life [13] [h] | bioavailability [14] [%] | Activity (Rattus norvegicus [15]) | clearance [16] [mL/min/kg]
1 | CC(C)(O)c1ccn2c(-c3ccc(F)c(-c4cccnc4)c3)cnc2n1 | 18 | 0.004 | 5 | 0.7 | 1.7 | 54 | 48 | Active | 0.84 | 0.58 | 39 | 9.1 |  |  |  | 
2 | N#Cc1cc(F)ccc1-c1cc(-c2cnc3nc(C(F)(F)F)ccn23)ccc1F |  | 0.00073 |  | 32 | 7.3 |  |  |  | 0.27 | 0.019 |  | 10.3 | 13.4 | 49 | Active | 3
